Consider three compounds from US20060073112A1, “Method of preventing hydrogen sulfide odor generation in an aqueous medium” (priority 2004, published 2006).

The subject of test [1] is sulfate reducing bacteria. Put plainly: Inhibition of hydrogen sulfide generation by sulfate reducers in serum bottles. Type of test: cell-based. The note with it: 48 hours incubation; for Sulfide Formation Level Sample A: replicate bottle A; for Sulfide Formation Level Sample B: replicate bottle B; for Sulfide Formation Level Sample C: replicate bottle C. The protocol:
The test protocol was as follows: 100 mL serum bottles were filled with synthetic nutrient medium, then stoppered, capped, and autoclaved, and allowed to cool to at least 35° C. Using a 1 mL syringe with needle, the treatment was added at desired dosages to prepared serum bottles (triplicates of each dosage). No treatment was added for baseline controls. Nine baseline serum bottles were used. Next, a 10^10 cells/ml concentration of the sulfate reducers was prepared (using autoclaved synthetic nutrient medium) inside an anaerobic chamber. Using a 1 ml syringe with needle, 0.1 ml of the prepared sulfate reducers culture was added to each serum bottle. The bottles were then incubated at the desired temperature for 48 hours. The baseline dissolved sulfide levels were then measured to determine if the samples were ready for efficacy analysis. Using a 30 mL syringe with needle, 30 mL of sample was removed from each serum bottle. About 25 mL of the sample was added to a 30 mL bottle containing 0.125 mL zinc acetate solution, followed by adding 1 mL of 1N NaOH. The sulfide in the fixed sample was then measured. If the control sample sulfide levels were >10 ppm, then the whole series of test vials was evaluated for generated sulfide. The remaining 5 mL of sample in the syringe was used for a final pH determination.

In test [2] the test system is sulfate reducing bacteria. Put plainly: Sulfate reducing bacteria viability (SRB/ml) after treatment. Format: cell-based. How it is done:
The test protocol was as follows: 100 mL serum bottles were filled with synthetic nutrient medium, then stoppered, capped, and autoclaved, and allowed to cool to at least 35° C. Using a 1 mL syringe with needle, the treatment was added at desired dosages to prepared serum bottles (triplicates of each dosage). No treatment was added for baseline controls. Nine baseline serum bottles were used.
Next, a 10^10 cells/ml concentration of the sulfate reducers was prepared (using autoclaved synthetic nutrient medium) inside an anaerobic chamber. Using a 1 ml syringe with needle, 0.1 ml of the prepared sulfate reducers culture was added to each serum bottle. The bottles were then incubated at the desired temperature for 48 hours.

With `Sc1nc2ccccc2s1` [2-mercaptobenzothiazole], the “Sulfide Formation Level Sample A” value in test [1] (inhibitor dose conc. 25 ppm), in test [1] (inhibitor dose conc. 50 ppm) and in test [1] (inhibitor dose conc. 100 ppm) was 0 (0 = <0.1 ppm Sulfide) in each case. In addition, the “Sulfide Formation Level Sample B” value in test [1] (inhibitor dose conc. 25 ppm), in test [1] (inhibitor dose conc. 50 ppm) and in test [1] (inhibitor dose conc. 100 ppm) was 0 (0 = <0.1 ppm Sulfide) throughout. Moreover, the “Sulfide Formation Level Sample C” value in test [1] (inhibitor dose conc. 25 ppm), in test [1] (inhibitor dose conc. 50 ppm) and in test [1] (inhibitor dose conc. 100 ppm) was 0 (0 = <0.1 ppm Sulfide) in each case. The values for the SRB/ml in test [2] (inhibitor dose conc. 25 ppm), in test [2] (inhibitor dose conc. 50 ppm) and in test [2] (inhibitor dose conc. 100 ppm) were 10,000 SRB/ml, 100,000 SRB/ml and 10,000 SRB/ml, respectively.
On to `CC[C@@]1([C@@H]2O[C@@H]([C@H]3O[C@@](O)(CO)[C@H](C)C[C@@H]3C)C[C@@H]2C)CC[C@H]([C@]2(C)CC[C@]3(C[C@H](O)[C@@H](C)[C@@H]([C@@H](C)[C@@H](OC)[C@H](C)C(=O)O)O3)O2)O1` [monensin, reference compound], for which the “Sulfide Formation Level Sample A” value is listed as 1+ (1+ = 0.1-1.0 ppm Sulfide) in test [1] (inhibitor dose conc. 25 ppm), 0 (0 = <0.1 ppm Sulfide) in test [1] (inhibitor dose conc. 50 ppm) and 0 (0 = <0.1 ppm Sulfide) in test [1] (inhibitor dose conc. 100 ppm). Also, the “Sulfide Formation Level Sample B” value in test [1] (inhibitor dose conc. 25 ppm) is listed as 1+ (1+ = 0.1-1.0 ppm Sulfide); in test [1] (inhibitor dose conc. 50 ppm) it was 0 (0 = <0.1 ppm Sulfide); in test [1] (inhibitor dose conc. 100 ppm) it was 0 (0 = <0.1 ppm Sulfide). Moreover, the “Sulfide Formation Level Sample C” value in test [1] (inhibitor dose conc. 25 ppm), in test [1] (inhibitor dose conc. 50 ppm) and in test [1] (inhibitor dose conc. 100 ppm) was 0 (0 = <0.1 ppm Sulfide) in each case. Further, the SRB/ml is reported as 1,000,000 SRB/ml in test [2] (inhibitor dose conc. 25 ppm), 100,000 SRB/ml in test [2] (inhibitor dose conc. 50 ppm) and 10,000 SRB/ml in test [2] (inhibitor dose conc. 100 ppm).
On to `NCCO` [monoethanolamine], for which the “Sulfide Formation Level Sample A” value was 1+ (1+ = 0.1-1.0 ppm Sulfide) in test [1] (inhibitor dose conc. 25 ppm), 1+ (1+ = 0.1-1.0 ppm Sulfide) in test [1] (inhibitor dose conc. 50 ppm) and 0 (0 = <0.1 ppm Sulfide) in test [1] (inhibitor dose conc. 100 ppm). Besides, the “Sulfide Formation Level Sample B” value in test [1] (inhibitor dose conc. 25 ppm) is reported as 1+ (1+ = 0.1-1.0 ppm Sulfide); in test [1] (inhibitor dose conc. 50 ppm), 1+ (1+ = 0.1-1.0 ppm Sulfide); in test [1] (inhibitor dose conc. 100 ppm), 0 (0 = <0.1 ppm Sulfide). For the same compound, the “Sulfide Formation Level Sample C” value is reported as 1+ (1+ = 0.1-1.0 ppm Sulfide) in test [1] (inhibitor dose conc. 25 ppm), 0 (0 = <0.1 ppm Sulfide) in test [1] (inhibitor dose conc. 50 ppm) and 0 (0 = <0.1 ppm Sulfide) in test [1] (inhibitor dose conc. 100 ppm). For the same compound, the SRB/ml in test [2] (inhibitor dose conc. 25 ppm), in test [2] (inhibitor dose conc. 50 ppm) and in test [2] (inhibitor dose conc. 100 ppm) was 100,000 SRB/ml each time.
